BindingDB's records for doi:10.1021/acs.jmedchem.8b00082 (Abbvie, 2018)

Assays:
[1] = Inhibition of NS5A in HuH7 cell infected HCV genotype 1a H77 assessed as decrease in viral replication after 3 days in presence of 40% human plasma by luciferase reporter gene assay
[2] = Inhibition of NS5A in HuH7 cell infected HCV genotype 1a H77 assessed as decrease in viral replication after 3 days by luciferase reporter gene assay
[3] = Inhibition of HCV genotype 1b Con1 NS5A expressed in HuH7 cell infected HCV genotype 2a assessed as decrease in viral replication after 3 days by luciferase reporter gene assay
[4] = Inhibition of HCV genotype 1b Con1 NS5A expressed in HuH7 cell infected HCV genotype 4a assessed as decrease in viral replication after 3 days by luciferase reporter gene assay
[5] = Inhibition of HCV genotype 1b Con1 NS5A expressed in HuH7 cell infected HCV genotype 3a assessed as decrease in viral replication after 3 days by luciferase reporter gene assay
[6] = Inhibition of NS5A in HuH7 cell infected HCV genotype 1b Con1 assessed as decrease in viral replication after 3 days by luciferase reporter gene assay
[7] = Inhibition of NS5A in HuH7 cell infected HCV genotype 1b Con1 assessed as decrease in viral replication after 3 days in presence of 40% human plasma by luciferase reporter gene assay
[8] = Inhibition of HCV genotype 1b Con1 NS5A expressed in HuH7 cell infected HCV genotype 2b assessed as decrease in viral replication after 3 days by luciferase reporter gene assay
[9] = Inhibition of HCV genotype 1b Con1 NS5A expressed in HuH7 cell infected HCV genotype 6a assessed as decrease in viral replication after 3 days by luciferase reporter gene assay

Compound	EC50 [1]	EC50 [2]	EC50 [3]	EC50 [4]	EC50 [5]	EC50 [6]	EC50 [7]	EC50 [8]	EC50 [9]
COC(=O)N[C@H](C(=O)N1CCC[C@H]1c1nc2ccc([C@H]3CC[C@H](c4ccc5nc([C@@H]6CCCN6C(=O)[C@@H](NC(=O)OC)C(C)C)[nH]c5c4)N3c3ccc(C4CCCCC4)cc3)cc2[nH]1)C(C)C	0.107 nM	0.004 nM	0.01 nM	0.009 nM	0.008 nM	0.009 nM	0.178 nM	0.007 nM	–
COC(=O)N[C@H](C(=O)N1CCC[C@H]1c1nc2ccc([C@H]3CC[C@H](c4ccc5nc([C@@H]6CCCN6C(=O)[C@@H](NC(=O)OC)C(C)C)[nH]c5c4)N3c3ccc(N4CCC(c5ccccc5)CC4)cc3)cc2[nH]1)C(C)C	1.51 nM	0.324 nM	0.468 nM	0.243 nM	0.481 nM	0.325 nM	1.51 nM	0.452 nM	0.402 nM
COC(=O)N[C@H](C(=O)N1CCC[C@H]1c1nc2ccc([C@H]3CC[C@H](c4ccc5nc([C@@H]6CCCN6C(=O)[C@@H](NC(=O)OC)C(C)C)[nH]c5c4)N3c3ccc(N4CCOCC4)cc3)cc2[nH]1)C(C)C	0.902 nM	0.379 nM	0.598 nM	0.316 nM	1.2 nM	0.382 nM	2.07 nM	0.96 nM	–
COC(=O)N[C@H](C(=O)N1CCC[C@H]1c1nc2cc([C@H]3CC[C@H](c4ccc5[nH]c([C@@H]6CCCN6C(=O)[C@@H](NC(=O)OC)C(C)C)nc5c4)N3c3cc(F)c(N4CCCCC4)c(F)c3)ccc2[nH]1)C(C)C	0.151 nM	0.005 nM	0.013 nM	0.005 nM	0.008 nM	0.006 nM	0.241 nM	0.007 nM	0.007 nM
COC(=O)N[C@H](C(=O)N1CCC[C@H]1c1nc2ccc([C@H]3CC[C@H](c4ccc5nc([C@@H]6CCCN6C(=O)[C@@H](NC(=O)OC)C(C)C)[nH]c5c4)N3c3ccc(C(C)(C)C)cc3)cc2[nH]1)C(C)C	0.148 nM	0.009 nM	0.152 nM	0.006 nM	0.006 nM	0.013 nM	0.268 nM	0.01 nM	–
COC(=O)N[C@H](C(=O)N1CCC[C@H]1c1nc2ccc([C@H]3CC[C@H](c4ccc5nc([C@@H]6CCCN6C(=O)[C@@H](NC(=O)OC)C(C)C)[nH]c5c4)N3c3ccc(Cl)cc3)cc2[nH]1)C(C)C	0.24 nM	0.006 nM	0.012 nM	0.005 nM	0.012 nM	0.007 nM	0.33 nM	0.007 nM	0.008 nM
COC(=O)N[C@H](C(=O)N1CCC[C@H]1c1nc2ccc([C@H]3CC[C@H](c4ccc5nc([C@@H]6CCCN6C(=O)[C@@H](NC(=O)OC)C(C)C)[nH]c5c4)N3c3ccc(-c4ccccc4)cc3)cc2[nH]1)C(C)C	0.075 nM	0.004 nM	0.011 nM	0.006 nM	0.016 nM	0.003 nM	0.108 nM	0.009 nM	0.011 nM
COC(=O)N[C@H](C(=O)N1CCC[C@H]1C(=O)Nc1ccc([C@H]2CC[C@H](c3ccc(NC(=O)[C@@H]4CCCN4C(=O)[C@@H](NC(=O)OC)C(C)C)cc3)N2c2ccc(C(C)(C)C)cc2)cc1)C(C)C	0.986 nM	0.136 nM	–	–	–	0.009 nM	0.09 nM	–	–
COC(=O)N[C@H](C(=O)N1CCC[C@H]1c1nc2ccc([C@H]3CC[C@H](c4ccc5nc([C@@H]6CCCN6C(=O)[C@@H](NC(=O)OC)C(C)C)[nH]c5c4)N3c3ccc(N4CCCCC4)c(F)c3)cc2[nH]1)C(C)C	0.199 nM	0.018 nM	0.048 nM	0.017 nM	0.044 nM	0.029 nM	0.383 nM	0.03 nM	–
COC(=O)N[C@H](C(=O)N1CCC[C@H]1c1nc2ccc([C@H]3CC[C@H](c4ccc5nc([C@@H]6CCCN6C(=O)[C@@H](NC(=O)OC)C(C)C)[nH]c5c4)N3c3ccc(OC(F)(F)F)cc3)cc2[nH]1)C(C)C	0.276 nM	0.019 nM	0.043 nM	0.013 nM	0.018 nM	0.012 nM	0.23 nM	0.012 nM	–
COC(=O)N[C@H](C(=O)N1CCC[C@H]1c1nc2ccc([C@H]3CC[C@H](c4ccc5nc([C@@H]6CCCN6C(=O)[C@@H](NC(=O)OC)C(C)C)[nH]c5c4)N3c3cc(Cl)c(N4CCCCC4)c(Cl)c3)cc2[nH]1)C(C)C	0.213 nM	0.005 nM	0.044 nM	0.006 nM	0.011 nM	0.003 nM	0.132 nM	0.005 nM	0.01 nM
COC(=O)N[C@H](C(=O)N1CCC[C@H]1c1nc2ccc([C@H]3CC[C@H](c4ccc5nc([C@@H]6CCCN6C(=O)[C@@H](NC(=O)OC)C(C)C)[nH]c5c4)N3c3cc(F)c(N4CCC(c5ccc(F)cc5)CC4)c(F)c3)cc2[nH]1)C(C)C	0.078 nM	0.003 nM	0.02 nM	0.009 nM	0.013 nM	0.008 nM	0.126 nM	0.013 nM	0.021 nM
COC(=O)N[C@H](C(=O)N1CCC[C@H]1c1nc2ccc([C@H]3CC[C@H](c4ccc5nc([C@@H]6CCCN6C(=O)[C@@H](NC(=O)OC)C(C)C)[nH]c5c4)N3c3ccc(Oc4ccccc4)cc3)cc2[nH]1)C(C)C	0.155 nM	0.012 nM	0.012 nM	0.005 nM	0.011 nM	0.02 nM	0.279 nM	0.008 nM	–
COC(=O)N[C@H](C(=O)N1CCC[C@H]1c1nc2ccc([C@H]3CC[C@H](c4ccc5nc([C@@H]6CCCN6C(=O)[C@@H](NC(=O)OC)C(C)C)[nH]c5c4)N3c3ccc(C4CC4)cc3)cc2[nH]1)C(C)C	0.161 nM	0.012 nM	0.041 nM	0.02 nM	0.026 nM	0.023 nM	0.354 nM	0.02 nM	–
COC(=O)N[C@H](C(=O)N1CCC[C@H]1c1nc2ccc([C@@H]3CC[C@@H](c4ccc5nc([C@@H]6CCCN6C(=O)[C@@H](NC(=O)OC)C(C)C)[nH]c5c4)N3c3ccc(C(C)(C)C)cc3)cc2[nH]1)C(C)C	1.98 nM	0.071 nM	–	–	–	0.013 nM	0.354 nM	–	–
COC(=O)N[C@H](C(=O)N1CCC[C@H]1c1nc2ccc([C@H]3CC[C@H](c4ccc5nc([C@@H]6CCCN6C(=O)[C@@H](NC(=O)OC)C(C)C)[nH]c5c4)N3c3ccc(F)cc3)cc2[nH]1)C(C)C	0.49 nM	0.038 nM	0.028 nM	0.014 nM	0.031 nM	0.025 nM	0.427 nM	0.021 nM	0.014 nM
COC(=O)N[C@H](C(=O)N1CCC[C@H]1c1nc2ccc([C@H]3CC[C@H](c4ccc5nc([C@@H]6CCCN6C(=O)[C@@H](NC(=O)OC)C(C)C)[nH]c5c4)N3c3ccc(N4CCOCC4)c(F)c3)cc2[nH]1)C(C)C	0.474 nM	0.189 nM	0.307 nM	0.17 nM	0.355 nM	0.196 nM	0.915 nM	0.229 nM	–
